Usually EC50 stands for the concentration at which the effect is half-maximal. For orientation: solubility means the dissolved amount per volume that the medium holds.

We go through two compounds from patent US8722849B2, “Polypeptides” (Novo Nordisk A/S, priority 2011, dated 2014).

≈ marks a conversion by molar mass, not a printed value. Like-named read-outs stand apart in the source and are kept apart here. Starred links: 1 amine or outer side, 2 acyl side, 3 side chain; linkers in the order of their positions; H or OH if unused. Positions of bridges follow the written chain, without caps; N, C: chain ends. Residues, ends and D or L forms follow the SMILES beside them. *: point of attachment. C20 diacid = O=C(O)CCCCCCCCCCCCCCCCCCC(=O)*; γGlu = O=C(O)[C@H](CCC(=O)[*:2])N[*:1]

Series [1] concerns the target T1, human amylin receptor (amylin 3(a) receptor: human calcitonin receptor + RAMP-3) (Homo sapiens, UniProt O60896+P30988).
T1 construct: expressed in transfected cells; host or cells: BHK570
T1 sequence (P30988 25-474): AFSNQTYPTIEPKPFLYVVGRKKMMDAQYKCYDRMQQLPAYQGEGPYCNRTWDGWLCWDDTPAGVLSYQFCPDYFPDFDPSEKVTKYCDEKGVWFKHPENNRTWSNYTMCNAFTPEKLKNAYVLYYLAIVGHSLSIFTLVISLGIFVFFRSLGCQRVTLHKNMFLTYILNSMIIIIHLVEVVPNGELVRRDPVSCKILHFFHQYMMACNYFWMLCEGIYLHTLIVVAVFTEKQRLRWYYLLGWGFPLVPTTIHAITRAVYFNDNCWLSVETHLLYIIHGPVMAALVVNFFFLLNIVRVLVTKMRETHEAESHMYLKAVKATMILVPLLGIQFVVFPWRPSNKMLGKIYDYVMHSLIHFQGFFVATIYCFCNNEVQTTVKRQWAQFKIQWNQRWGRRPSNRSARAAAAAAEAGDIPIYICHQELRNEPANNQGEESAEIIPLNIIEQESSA
T1 sequence (O60896 24-148 partner): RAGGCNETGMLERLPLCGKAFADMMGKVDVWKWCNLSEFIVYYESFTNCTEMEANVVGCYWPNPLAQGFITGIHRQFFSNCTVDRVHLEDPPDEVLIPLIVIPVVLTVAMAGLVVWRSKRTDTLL
Put plainly: Assay (II)a functional CRE-luciferase assay, human amylin receptor. The settings on record: Table 2; BHK amylin 3(a)-receptor/CRE-luc cells. The class given is cell-based.

The target in series [2] is T2, human calcitonin receptor (Homo sapiens, UniProt P30988).
T2 construct: expressed in transfected cells; host or cells: BHK570
T2 sequence (P30988 25-474): T1 sequence (P30988 25-474)
Put plainly: Assay (II)a functional CRE-luciferase assay, human calcitonin receptor. The class given is cell-based. The conditions noted are these: Table 7; human calcitonin (CTa) receptor.

Series [3] addresses T3, rat amylin 3(a) receptor (rat calcitonin(a) receptor + rat RAMP3) (Rattus norvegicus, UniProt P32214+Q9JJ73).
T3 construct: expressed in transfected cells; host or cells: BHK tk'ts 13
T3 sequence (P32214 25-479 isoform P32214-2 limits assumed): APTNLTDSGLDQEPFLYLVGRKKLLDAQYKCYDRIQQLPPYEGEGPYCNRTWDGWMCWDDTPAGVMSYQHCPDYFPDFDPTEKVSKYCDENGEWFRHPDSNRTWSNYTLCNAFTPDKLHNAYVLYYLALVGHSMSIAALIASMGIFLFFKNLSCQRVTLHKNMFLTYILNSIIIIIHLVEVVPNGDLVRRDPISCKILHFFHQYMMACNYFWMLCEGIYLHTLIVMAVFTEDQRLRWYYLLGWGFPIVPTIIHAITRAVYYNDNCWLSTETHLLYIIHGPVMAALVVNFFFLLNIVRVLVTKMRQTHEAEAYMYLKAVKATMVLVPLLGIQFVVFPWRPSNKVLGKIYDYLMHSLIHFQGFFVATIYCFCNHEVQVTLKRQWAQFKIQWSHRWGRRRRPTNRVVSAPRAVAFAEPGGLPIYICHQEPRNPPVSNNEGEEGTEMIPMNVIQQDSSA
T3 sequence (Q9JJ73 23-147 partner): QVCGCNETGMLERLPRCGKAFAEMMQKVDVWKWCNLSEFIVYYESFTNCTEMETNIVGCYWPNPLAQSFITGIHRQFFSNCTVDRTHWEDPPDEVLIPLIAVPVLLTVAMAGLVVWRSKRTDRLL
Put plainly: Assay (II)b functional cAMP FlashPlate assay, rat amylin receptor. The class given is cell-based. The conditions noted are these: Table 11. From the text:
(§1) Assay (II)b—Rat Calcitonin and Rat Amylin Receptor Assays
(§2) Activation of calcitonin and amylin (coexpression of calcitonin receptor and receptor activity modifying proteins (RAMP)) receptors lead to increased intracellular concentrations of cAMP. In order to quantify the cAMP levels in transiently transfected cells the Adenylyl Cyclase Activation FlashPlate® Assay from […] was used. The basic principle of the FlashPlate® Assay is a competition between radioactive and non-radioactive cAMP generated by the cells for a fixed number of binding sites.
(§3) Construction of rat calcitonin(a)—and rat amylin 3(a)-receptor cells.
(§4) BHK tk'ts 13 cells were transiently transfected with either rat calcitonin (a) receptor or amylin 3 (a) receptor (rat calcitonin(a) receptor+ rat RAMP3) using FuGENE® 6 (ROCHE), according to the manufacturers recommendations.
(§5) 24 hours after transient transfection the cells (rat calcitonin(a)—or rat amylin 3(a)—receptor cells) were added (100.000 cells/well) to the 96 well FlashPlates® with samples or standard in FlashPlate stimulation buffer with IBMX and incubated for 30 min. Detection mix was created according to manufacturers protocol and scintillation measured after 3 h of incubation on TopCounter™ (Packard).

Series [4] has as its target T4, rat calcitonin (a) receptor (Rattus norvegicus, UniProt P32214).
T4 construct: expressed in transfected cells; host or cells: BHK tk'ts 13
T4 sequence (P32214 25-479 isoform P32214-2 limits assumed): T3 sequence (P32214 25-479 isoform P32214-2 limits assumed)
Put plainly: Assay (II)b functional cAMP FlashPlate assay, rat calcitonin receptor. The class given is cell-based. The conditions noted are these: Table 11; read-out: CTa receptor rat EC50.
Excerpt: as §1, §2, §3, §4, §5

Series [5] can be described thus: Assay (IV) determination of solubility. The class given is physicochemical. The essentials:
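Polypeptide in water (~500 nmol/ml stock) was mixed 1:1 with 100 mM buffers from pH 3.0 to 8.0 (glycylglycine pH 3.0–5.0; bistrispropane pH 6.0–8.0). After 18 hours at room temperature, samples were centrifuged and the polypeptide remaining in solution was quantified by HPLC.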

[6] abbreviates: bistrispropane buffer, pH 6, pH 6.0, read-out: Solubility pH 6.0.
Setting [7] is: bistrispropane buffer, pH 6.5, pH 6.5, read-out: Solubility pH 6.5.
Where [8] appears, read: bistrispropane buffer, pH 7, pH 7.0, read-out: Solubility pH 7.0.
[9] abbreviates: bistrispropane buffer, pH 7.5, pH 7.5, read-out: Solubility pH 7.5.
Where [10] appears, read: bistrispropane buffer, pH 8, pH 8.0, read-out: Solubility pH 8.0.
Setting [11] is: glycylglycine buffer, pH 3, pH 3.0, read-out: Solubility pH 3.0.
The mark [12] stands for this setting: glycylglycine buffer, pH 4, pH 4.0, 18 hours at room temperature, Table 2, read-out: Solubility pH 4.0.
The mark [13] stands for this setting: glycylglycine buffer, pH 4, pH 4.0, read-out: Solubility pH 4.0.
The mark [14] stands for this setting: glycylglycine buffer, pH 5, pH 5.0, read-out: Solubility pH 5.0.

`CC[C@H](C)[C@H](NC(=O)[C@@H]1CCCN1C(=O)CNC(=O)[C@H](Cc1ccccc1)NC(=O)[C@H](CC(N)=O)NC(=O)[C@H](CC(N)=O)NC(=O)[C@H](CO)NC(=O)[C@H](CO)NC(=O)[C@H](Cc1cnc[nH]1)NC(=O)[C@H](Cc1cnc[nH]1)NC(=O)[C@H](CC(C)C)NC(=O)[C@H](Cc1ccccc1)NC(=O)[C@H](CCC(=O)O)NC(=O)[C@H](C)NC(=O)[C@H](CC(C)C)NC(=O)[C@H](CCCNC(=N)N)NC(=O)[C@H](CCC(N)=O)NC(=O)[C@@H](NC(=O)[C@H](C)NC(=O)[C@@H]1CSSC[C@H](NC(=O)[C@H](Cc2cnc[nH]2)NC(=O)[C@H](Cc2cnc[nH]2)NC(=O)CC[C@H](NC(=O)CCCCCCCCCCCCCCCCCCC(=O)O)C(=O)O)C(=O)N[C@@H](CC(N)=O)C(=O)N[C@@H]([C@@H](C)O)C(=O)N[C@@H](C)C(=O)N[C@@H]([C@@H](C)O)C(=O)N1)[C@@H](C)O)C(=O)N[C@@H](CC(C)C)C(=O)N1CCC[C@H]1C(=O)N1CCC[C@H]1C(=O)N[C@H](C(=O)N[C@@H](CC(N)=O)C(=O)N[C@H](C(=O)NCC(=O)N[C@@H](CO)C(=O)N[C@@H](CC(N)=O)C(=O)N[C@H](C(=O)N[C@@H](Cc1ccc(O)cc1)C(N)=O)[C@@H](C)O)C(C)C)[C@@H](C)O` [Example 17, N-alpha-[(S)-4-Carboxy-4-(19-carboxynonadecanoylamino)butyryl]-His-[His1,Glu14,His17]-pramlintide] ({C20 diacid-γGlu}-HHCNTATCATQRLAEFLHHSSNNFGPILPPTNVGSNTY-NH2; disulfide 3-8): the EC50 in series [1] is 0.111 nM; in series [2] it was 0.166 nM; in series [3], 0.147 nM; in series [4], 0.221 nM. The solubility at 18 h in series [5] (setting [6]) was 160 µM (≈ 736 µg/mL); in series [5] (setting [7]), 66 µM (≈ 304 µg/mL); in series [5] (setting [8]), 88 µM (≈ 405 µg/mL); in series [5] (setting [9]), > 200 µM; in series [5] (setting [10]), > 200 µM; in series [5] (setting [11]), > 200 µM. Further, the solubility at 18 h in series [5] (setting [12]), in series [5] (setting [13]) and in series [5] (setting [14]) was > 200 µM each time.
Consider `CC[C@H](C)[C@H](NC(=O)[C@@H]1CCCN1C(=O)CNC(=O)[C@H](Cc1ccccc1)NC(=O)[C@H](CC(N)=O)NC(=O)[C@H](CC(N)=O)NC(=O)[C@H](CO)NC(=O)[C@H](CO)NC(=O)[C@H](Cc1c[nH]cn1)NC(=O)[C@H](Cc1cnc[nH]1)NC(=O)[C@H](CC(C)C)NC(=O)[C@H](Cc1ccccc1)NC(=O)[C@H](CCC(=O)O)NC(=O)[C@H](C)NC(=O)[C@H](CC(C)C)NC(=O)[C@H](CCCNC(=N)N)NC(=O)[C@H](CCC(N)=O)NC(=O)[C@@H](NC(=O)[C@H](C)NC(=O)[C@@H]1CSSC[C@H](NC(=O)[C@H](Cc2cnc[nH]2)NC(=O)CC[C@H](NC(=O)CCCCCCCCCCCCCCCCCCC(=O)O)C(=O)O)C(=O)N[C@@H](CC(N)=O)C(=O)N[C@@H]([C@@H](C)O)C(=O)N[C@@H](C)C(=O)N[C@@H]([C@@H](C)O)C(=O)N1)[C@@H](C)O)C(=O)N[C@@H](CC(C)C)C(=O)N1CCC[C@H]1C(=O)N1CCC[C@H]1C(=O)N[C@H](C(=O)N[C@@H](CC(N)=O)C(=O)N[C@H](C(=O)NCC(=O)N[C@@H](CO)C(=O)N[C@@H](CC(N)=O)C(=O)N[C@H](C(=O)N1CCC[C@H]1C(N)=O)[C@@H](C)O)C(C)C)[C@@H](C)O` [Example 84, N-alpha-[(S)-4-Carboxy-4-(19-carboxynonadecanoylamino)butyryl]-[His1,Glu14,His17,Pro37]-pramlintide] ({C20 diacid-γGlu}-HCNTATCATQRLAEFLHHSSNNFGPILPPTNVGSNTP-NH2; disulfide 2-7), for which the EC50 in series [1] amounted to 0.0925 nM; in series [2] it was 0.067 nM; in series [3] it was 0.121 nM; in series [4] it was 0.109 nM. The solubility at 18 h in series [5] (setting [6]) was > 200 µM; in series [5] (setting [7]) it was > 200 µM; in series [5] (bistrispropane buffer, pH 7, pH 7.0, 18 hours at room temperature, Table 3, read-out: Solubility pH 7.0), > 200 µM; in series [5] (bistrispropane buffer, pH 7, pH 7.0, Table 8, read-out: Solubility pH 7.0) it was > 200 µM; in series [5] (setting [8]) it was > 200 µM; in series [5] (setting [9]), > 200 µM. Besides, the solubility at 18 h in series [5] (setting [10]), in series [5] (setting [11]), in series [5] (setting [12]), in series [5] (setting [13]) and in series [5] (setting [14]) was > 200 µM in each case.
